{
  "source": "patent US11241393B2",
  "about": "(priority 2020, dated 2022)",
  "key": {"in vitro [1]": {"assay": "in vitro", "settings": "dog"}, "human cytomegalovirus": {"tested_on": "human cytomegalovirus", "format": "cell-based"}, "[2]": {"tested_on": "influenza virus A/Aichi/2/68 (H3N2)", "assay": "organism not typed", "format": "cell-based", "settings": "for IC50: MDCK"}, "in vitro [3]": {"assay": "in vitro"}, "in vitro [4]": {"assay": "in vitro", "settings": "human"}, "in vitro [5]": {"assay": "in vitro", "settings": "cattle"}, "vaccinia virus": {"tested_on": "vaccinia virus", "format": "cell-based", "settings": "in vitro, cell culture"}, "[6]": {"settings": "rat, in vivo"}, "in vitro [7]": {"assay": "in vitro", "settings": "human", "remark": "listed apart in the source"}},
  "note": "Read-outs that look alike come from different tables or passages of the source.",
  "data": [
    {"smiles": "CCCCCCCCCCC(=O)O[Si](C)(C)OC(=O)CCCCCCCCCC", "note": "[Sil 34, Di(undecanoyloxy)dimethylsilane]", "values": [
      {"measurement": "CC50", "setting": "in vitro [1]", "value": 2530, "unit": "µM"},
      {"measurement": "antiviral activity against human cytomegalovirus", "setting": "human cytomegalovirus", "value": "Close to borderline effect"}
    ]},
    {"smiles": "CCCCCCCCCCCC(=O)O[Si](OC(=O)CCCCCCCCCCC)(c1ccccc1)c1ccccc1", "note": "[Sil 25, Di(dodecanoyloxy)diphenylsilane]", "values": [
      {"measurement": "CC50", "setting": "in vitro [1]", "value": 55.9, "unit": "µM"},
      {"measurement": "SI", "setting": "[2]", "value": 5.82},
      {"measurement": "antiviral activity toward influenza virus A(H3N2)", "setting": "[2]", "value": "marked activity"},
      {"measurement": "IC50", "setting": "[2]", "value": 9.6, "unit": "µM"},
      {"measurement": "CC50", "setting": "in vitro [3]", "value": "< 20", "unit": "µM"}
    ]},
    {"smiles": "CCCCCCCCCCCCCCCC(=O)O[Si](OC(=O)CCCCCCCCCCCCCCC)(c1ccccc1)c1ccccc1", "note": "[Sil 27, Di(hexadecanoyloxy)diphenylsilane]", "values": [
      {"measurement": "CC50", "setting": "in vitro [1]", "value": 317, "unit": "µM"},
      {"measurement": "SI", "setting": "human cytomegalovirus", "value": 30.9},
      {"measurement": "antiviral activity against human cytomegalovirus", "setting": "human cytomegalovirus", "value": "marked activity"}
    ]},
    {"smiles": "CCCC[Si](C)(C)OC1OC(CO)C(O)C(O)C1O", "note": "[Sil 7, Butyldimethylsilyl-a-D-galactopyranoside]", "values": [
      {"measurement": "CC50", "setting": "in vitro [1]", "value": 444, "unit": "µM"},
      {"measurement": "antiviral activity against human cytomegalovirus", "setting": "human cytomegalovirus", "value": "Close to borderline effect"},
      {"measurement": "CC50", "setting": "in vitro [4]", "value": "< 20", "unit": "µM"}
    ]},
    {"smiles": "CCCCCCCCCCCC[Si](C)(C)CCOC1OC(CO)C(O)C(O)C1O", "note": "[Sil 3, 2-(Dimethyldodecylsilyl)ethyl-b-D-glucopyranoside]", "values": [
      {"measurement": "CC50", "setting": "in vitro [1]", "value": "< 20", "unit": "µM"},
      {"measurement": "CC50", "setting": "MDCK cells; dog", "value": 19.2, "unit": "µM"},
      {"measurement": "SI", "setting": "[2]", "value": 2.9},
      {"measurement": "antiviral activity toward influenza virus A(H3N2)", "setting": "[2]", "value": "marked activity"},
      {"measurement": "IC50", "setting": "[2]", "value": 6.6, "unit": "µM"},
      {"measurement": "CC50", "setting": "in vitro [5]", "value": "< 20", "unit": "µM"},
      {"measurement": "CC50", "setting": "in vitro [3]", "value": "< 20", "unit": "µM"}
    ]},
    {"smiles": "CCCCCCCCCCCC[Si](C)(C)O[C@@H]1O[C@H](COC(C)=O)[C@@H](OC(C)=O)[C@H](OC(C)=O)[C@H]1OC(C)=O", "note": "[Sil 19, 1-O-Dimethyl(dodecyl)silyl-(2,3,4,6-O-tetraacetyl-b-D-glucopyranoside)]", "values": [
      {"measurement": "CC50", "setting": "MDCK cells", "value": 65.5, "unit": "µM"},
      {"measurement": "antiviral activity against human cytomegalovirus", "setting": "human cytomegalovirus", "value": "Close to borderline effect"}
    ]},
    {"smiles": "CCCCCCCCCCCC[Si](C)(C)OC1OC(CO)C(O)C(O)C1O", "note": "[Sil 9, Dodecyldimethylsilyl-a-D-glucopyranoside]", "values": [
      {"measurement": "antiviral activity versus vaccinia virus", "setting": "vaccinia virus", "value": "marked activity"},
      {"measurement": "CC50", "setting": "in vitro [1]", "value": 444, "unit": "µM"}
    ]},
    {"smiles": "CC(N)C12CC3CC(CC(C3)C1)C2", "note": "(centres unmarked) [Rimantadine, reference compound]", "values": [
      {"measurement": "CC50", "setting": "in vitro [1]", "value": 94, "unit": "µM"},
      {"measurement": "SI", "setting": "[2]", "value": 3133.0},
      {"measurement": "IC50", "setting": "[2]", "value": 0.03, "unit": "µM"}
    ]},
    {"smiles": "N.N.[Cl-].[Cl-].[OH-].[OH-].[Pt+4]", "note": "[Standard Cis-Oxoplatin, cis-oxoplatin]", "values": [
      {"measurement": "tissues with highest platinum concentration compared with the other treatment groups", "setting": "[6]; iv", "value": "highest platinum concentration in the stomach and the liver"},
      {"measurement": "tissues with highest platinum concentration compared with the other treatment groups", "setting": "[6]; po", "value": "highest accumulation of platinum in the spleen and lungs"}
    ]},
    {"smiles": "CCCCCCCCCCCCCCCCCC[Si](C)(C)O[C@@H]1O[C@H](COC(C)=O)[C@@H](OC(C)=O)[C@H](OC(C)=O)[C@H]1OC(C)=O", "note": "[Sil 20, 1-O-Dimethyl(octadecyl)silyl-(2,3,4,6-O-tetraacetyl-b-D-glucopyranoside)]", "values": [
      {"measurement": "CC50", "setting": "MDCK cells", "value": 2530, "unit": "µM"},
      {"measurement": "antiviral activity toward the cytomegalovirus", "setting": "human cytomegalovirus", "value": "marked activity"}
    ]},
    {"smiles": "CCCCCCCCCC[Si](C)(C)CCOC1OC(CO)C(O)C(O)C1O", "note": "[Sil 2, 2-(Dimethyldecylsilyl)ethyl-b-D-glucopyranoside]", "values": [
      {"measurement": "cytotoxicity (summary in words)", "setting": "HEp-2 cells", "value": "wider toxicity"},
      {"measurement": "CC50", "setting": "in vitro [7]", "value": "< 20", "unit": "µM"},
      {"measurement": "CC50", "setting": "in vitro [1]", "value": "< 20", "unit": "µM"},
      {"measurement": "cytotoxicity (summary in words)", "setting": "MDCK cells", "value": "wider toxicity"},
      {"measurement": "CC50", "setting": "MDCK cells; dog", "value": 18, "unit": "µM"},
      {"measurement": "antiviral activity against human cytomegalovirus", "setting": "human cytomegalovirus", "value": "Close to borderline effect"},
      {"measurement": "SI", "setting": "[2]", "value": 2.43},
      {"measurement": "antiviral activity toward influenza virus A(H3N2)", "setting": "[2]", "value": "marked activity"},
      {"measurement": "IC50", "setting": "[2]", "value": 7.38, "unit": "µM"},
      {"measurement": "cytotoxicity (summary in words)", "setting": "CT cells", "value": "wider toxicity"},
      {"measurement": "CC50", "setting": "in vitro [5]", "value": "< 20", "unit": "µM"},
      {"measurement": "CC50", "setting": "in vitro [3]", "value": "< 20", "unit": "µM"}
    ]},
    {"smiles": "CCCCCCCCCCCCCCCCCC[Si](CCCCCCCCCCCCCCCCCC)(OC1OC(COC(C)=O)C(OC(C)=O)C(OC(C)=O)C1OC(C)=O)OC1OC(COC(C)=O)C(OC(C)=O)C(OC(C)=O)C1OC(C)=O", "note": "[Sil 15, 1-O-Dioctadecylsilyl-di(2,3,4,6-O-tetraacetyl-b-D-galactopyranoside)]", "values": [
      {"measurement": "antiviral activity against human cytomegalovirus", "setting": "human cytomegalovirus; in vitro, cell culture", "value": "Close to borderline effect"}
    ]}
  ]
}
